Assay: Catalepsy test (rat on a vertical wire mesh, s.c.)
Settings: Cataleptic Activity, maximum within the first 6 hours
Protocol: Test compound is given s.c. in different doses. The rat (170-240 g) is placed on a vertical wire mesh (mesh-diameter 12 mm). The rat is considered cataleptic if it remains immobile for more than 15 sec. The maximum number of rats showing catalepsy within the first 6 hours is recorded for each dose group. The results are recorded in fractions and an ED50 value is calculated by means of log-probit analysis.

Q: Which “ED50(s.c.)” value does the source give for `O=C(O)/C=C/C(=O)O.O=C1CCCN1CCN1CCC(c2cn(-c3ccc(F)cc3)c3ccc(Cl)cc23)CC1` [Comp. No 4, 5-chloro-1-(4-fluorophenyl)-3-[1-[2-(2-pyrrolidinon-1-yl)ethyl]-4-piperidyl]-1H-indole, fumarate] here?
A: 23 µmol/kg

Q: For `O=C1NCCN1CCN1CC=C(c2cn(-c3ccc(F)cc3)c3ccc(C(F)(F)F)cc23)CC1` [Comp. A, 1-(4-Fluorophenyl)-3-[1-[2-(2-imidazolidinon-1-yl)ethyl]-1,2,3,6-tetrahydropyridin-4-yl]-5-trifluoromethyl-1H-indole], which “ED50(s.c.)” value is on record?
A: 0.49 µmol/kg

Q: With “5-Chloro-1-(4-fluorophenyl)-3-[4-[2-(2-imidazolidinon-1-yl)ethyl]-12,3,6-tetrahydropyridin-4-yl]-5-trifluoromethyl-1H-indole [Comp. C]” as the compound, how does the “ED50(s.c.)” value read?
A: 4.5 µmol/kg

Q: Which “ED50(s.c.)” value does the source give for “5-Chloro-1-(4-fluorophenyl)-3-[1-[2-(2-imidazolidinon-1-yl)ethyl]-1,2,3,6-tetrahydropyridin-4-yl]-5-trifluoromethyl-1H-indole [Comp. B]” here?
A: 2.2 µmol/kg

Q: With `CN1CCN(CCN2CCC(c3cn(-c4ccc(F)cc4)c4ccc(Cl)cc34)CC2)C1=O.O=C(O)/C=C/C(=O)O` [Comp. No 3, 5-chloro-1-(4-fluorophenyl)-3-[1-[2-(3-methyl-2-imidazolidinon-1-yl)ethyl]4-piperidyl]-1H-indole, fumarate] as the compound, how does the “ED50(s.c.)” value read?
A: 31 µmol/kg
